Assay: Melatonin time release profile (dissolution testing) of bilayer caplet
Format: physicochemical
Conditions: for Melatonin Released (%): bilayer caplet
From the text: Initially, a small portion of melatonin was being added to the immediate release layer. […] The premix blends were modified by relocating all melatonin ingredients to the time release layer. During initial trials, modifications were also made to excipients for cost purposes. […] The final bilayer caplet is coated, making it easier to swallow, with peppermint oil for odour masking. With these optimum parameters assessed for each layer, the tablet satisfies all of the requisite physical and chemical parameters to deliver the ingredients as intended.

- Melatonin Released (%) (hardness 28 kp, time 15 minutes): 20%
- Melatonin Released (%) (hardness 28 kp, time 60 minutes): 57%
- Melatonin Released (%) (hardness 28 kp, time 360 minutes): 99%
- Melatonin Released (%) (hardness 30 kp, time 15 minutes): 18%
- Melatonin Released (%) (hardness 30 kp, time 60 minutes): 52%
- Melatonin Released (%) (hardness 30 kp, time 360 minutes): 98%
- melatonin release in dissolution testing (initial trial formulation with a small portion of melatonin in the immediate release layer): released too quickly
SMILES: COc1ccc2[nH]cc(CCNC(C)=O)c2c1 [Melatonin]

From patent publication US10568856B2, “Composition for improved sleep” (Jamieson Laboratories, Ltd., priority 2015, dated 2020)
